From PubChem BioAssay AID330 (DTP/NCI, 2004)
Where “and” joins values, the source holds several entries; their conditions need not be identical. Equal values may be shown once. Inconclusive results and toxic doses are left out.

System: P388 leukemia ip, CD2F1 mice, survival T/C
Assay: NCI In Vivo Anticancer Drug Screen. Data for tumor model P388 Leukemia (intraperitoneal) in CD2F1 (CDF1) mice
Details: endpoint: median survival time, higher = longer survival
How it was run: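 Mice carrying the transplanted tumor received test compound or vehicle. Survival was recorded in each group, and the value is the treated-group measurement divided by that of the vehicle-treated control group.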

[1] = dose: 50.0 mg/kg/injection, schedule: Q01DX005 (ip), vehicle: saline with Tween-80
[2] = dose: 50.0 mg/kg/injection, schedule: Q01DX009 (ip), vehicle: saline
[3] = dose: 100.0 mg/kg/injection, schedule: Q01DX005 (ip), vehicle: saline with Tween-80
[4] = dose: 200.0 mg/kg/injection, schedule: Q01DX005 (ip), vehicle: saline with Tween-80
[5] = dose: 12.5 mg/kg/injection, schedule: Q01DX005 (ip), vehicle: Klucel (hydroxypropylcellulose) (HPC)
[6] = dose: 25.0 mg/kg/injection, schedule: Q01DX005 (ip), vehicle: Klucel (hydroxypropylcellulose) (HPC)
[7] = dose: 50.0 mg/kg/injection, schedule: Q01DX005 (ip), vehicle: Klucel (hydroxypropylcellulose) (HPC)

Compound: C1CSCCCSCCCSCCCSC1
- T/C (dose: 50.0 mg/kg/injection, schedule: Q01DX009 (ip), vehicle: Klucel (hydroxypropylcellulose) (HPC)): 100 % of control
- T/C (dose: 100.0 mg/kg/injection, schedule: Q01DX009 (ip), vehicle: Klucel (hydroxypropylcellulose) (HPC)): 99 % of control
- T/C (dose: 200.0 mg/kg/injection, schedule: Q01DX009 (ip), vehicle: Klucel (hydroxypropylcellulose) (HPC)): 100 % of control

Compound: COC(=O)C1(O)C(=O)NC2=C1C(=O)c1ccccc1C2=O (configuration not stated)
- T/C (dose: 12.5 mg/kg/injection, schedule: Q01DX005 (ip), vehicle: saline with Tween-80): 99 % of control and 95 % of control
- T/C (dose: 25.0 mg/kg/injection, schedule: Q01DX005 (ip), vehicle: saline with Tween-80): 98 % of control and 110 % of control
- T/C [1]: 105 % of control

Compound: Cc1cc(NS(=O)(=O)c2ccc(N)cc2)no1
- T/C (dose: 25.0 mg/kg/injection, schedule: Q01DX005 (ip), vehicle: saline): 106 % of control
- T/C (dose: 50.0 mg/kg/injection, schedule: Q01DX005 (ip), vehicle: saline): 103 % of control
- T/C (dose: 100.0 mg/kg/injection, schedule: Q01DX005 (ip), vehicle: saline): 114 % of control
- T/C (dose: 200.0 mg/kg/injection, schedule: Q01DX005 (ip), vehicle: saline): 101 % of control
- T/C (dose: 400.0 mg/kg/injection, schedule: Q01DX005 (ip), vehicle: saline): 97 % of control

Compound: O=C(N/N=C\c1cc(Br)cc(Br)c1O)N/N=C/c1cc(Br)cc(Br)c1O
- T/C (dose: 6.25 mg/kg/injection, schedule: Q01DX009 (ip), vehicle: saline with Tween-80): 100 % of control and 110 % of control
- T/C (dose: 12.5 mg/kg/injection, schedule: Q01DX009 (ip), vehicle: distilled water + Tween-80): 98 % of control
- T/C (dose: 20.0 mg/kg/injection, schedule: Q01DX005 (ip), vehicle: suspension in saline): 106 % of control
- T/C (dose: 20.0 mg/kg/injection, schedule: Q01DX005 (iv), vehicle: suspension in saline): 101 % of control
- T/C (dose: 25.0 mg/kg/injection, schedule: Q01DX009 (ip), vehicle: distilled water + Tween-80): 106 % of control
- T/C (dose: 40.0 mg/kg/injection, schedule: Q01DX005 (iv), vehicle: suspension in saline): 101 % of control
- T/C (dose: 50.0 mg/kg/injection, schedule: Q01DX009 (ip), vehicle: distilled water + Tween-80): 120 % of control
- T/C (dose: 50.0 mg/kg/injection, schedule: Q01DX009 (oral), vehicle: saline with Tween-80): 103 % of control
- T/C (dose: 80.0 mg/kg/injection, schedule: Q01DX005 (iv), vehicle: suspension in saline): 100 % of control
- T/C (dose: 100.0 mg/kg/injection, schedule: Q01DX009 (oral), vehicle: saline with Tween-80): 105 % of control
- T/C (dose: 160.0 mg/kg/injection, schedule: Q01DX005 (ip), vehicle: suspension in saline): 158 % of control
- T/C (dose: 160.0 mg/kg/injection, schedule: Q01DX005 (iv), vehicle: suspension in saline): 100 % of control
- T/C (dose: 200.0 mg/kg/injection, schedule: Q01DX009 (oral), vehicle: saline with Tween-80): 108 % of control
- T/C (dose: 280.0 mg/kg/injection, schedule: Q01DX005 (ip), vehicle: suspension in saline): 160 % of control
- T/C (dose: 400.0 mg/kg/injection, schedule: Q01DX009 (oral), vehicle: saline with Tween-80): 104 % of control
- T/C (dose: 800.0 mg/kg/injection, schedule: Q01DX009 (oral), vehicle: saline with Tween-80): 104 % of control
- T/C (dose: 1600.0 mg/kg/injection, schedule: Q01DX009 (oral), vehicle: saline with Tween-80): 106 % of control

Compound: NCC(S)c1ccc(Cl)cc1 (configuration not stated)
- T/C (dose: 12.5 mg/kg/injection, schedule: Q01DX001 (ip), vehicle: saline): 100 % of control
- T/C (dose: 25.0 mg/kg/injection, schedule: Q01DX001 (ip), vehicle: saline): 100 % of control
- T/C (dose: 50.0 mg/kg/injection, schedule: Q01DX001 (ip), vehicle: saline): 100 % of control

Compound: O=C(Nc1ncc([N+](=O)[O-])s1)c1ccc([N+](=O)[O-])cc1
- T/C (dose: 12.5 mg/kg/injection, schedule: Q01DX009 (ip), vehicle: saline): 100 % of control
- T/C (dose: 25.0 mg/kg/injection, schedule: Q01DX009 (ip), vehicle: saline): 97 % of control
- T/C [2]: 104 % of control

Compound: Cc1nc2sc3c(c2c2ncnn12)CCCC3
- T/C [1]: 103 % of control
- T/C [3]: 98 % of control
- T/C [4]: 104 % of control

Compound: CS(=O)(=O)OCC1OC(n2ncc(=O)[nH]c2=O)C(O)C1O (configuration not stated)
- T/C (dose: 50.0 mg/kg/injection, schedule: Q01DX009 (ip), vehicle: saline with Tween-80): 100 % of control
- T/C (dose: 100.0 mg/kg/injection, schedule: Q01DX009 (ip), vehicle: saline with Tween-80): 95 % of control
- T/C (dose: 200.0 mg/kg/injection, schedule: Q01DX009 (ip), vehicle: saline with Tween-80): 101 % of control

Compound: COc1cc(Br)c(CC(NC=O)c2ccc3c(c2)OCO3)cc1OC (configuration not stated)
- T/C (dose: 15.0 mg/kg/injection, schedule: Q01DX005 (ip), vehicle: saline with Tween-80): 107 % of control
- T/C (dose: 30.0 mg/kg/injection, schedule: Q01DX005 (ip), vehicle: saline with Tween-80): 104 % of control
- T/C (dose: 60.0 mg/kg/injection, schedule: Q01DX005 (ip), vehicle: saline with Tween-80): 89 % of control and 94 % of control

Compound: COc1cc2c(c(OC)c1OC)-c1ccc(SC)c(=O)cc1C(NC(=O)c1ccccc1)CC2 (configuration not stated)
- T/C (dose: 2.5 mg/kg/injection, schedule: Q01DX009 (ip), vehicle: Klucel (hydroxypropylcellulose) (HPC)): 155 % of control
- T/C (dose: 5.0 mg/kg/injection, schedule: Q01DX009 (ip), vehicle: Klucel (hydroxypropylcellulose) (HPC)): 117 % of control
- T/C (dose: 625.0 micrograms/kg/injection, schedule: Q01DX009 (ip), vehicle: Klucel (hydroxypropylcellulose) (HPC)): 112 % of control
- T/C (dose: 1250.0 micrograms/kg/injection, schedule: Q01DX009 (ip), vehicle: Klucel (hydroxypropylcellulose) (HPC)): 120 % of control
- T/C (dose: 10000.0 micrograms/kg/injection, schedule: Q01DX009 (ip), vehicle: Klucel (hydroxypropylcellulose) (HPC)): 90 % of control

Compound: CC1(C)CC(NC2CCCCC2)=CC(=NC2CCCCC2)N1
- T/C (dose: 6.25 mg/kg/injection, schedule: Q01DX005 (ip), vehicle: Klucel (hydroxypropylcellulose) (HPC)): 100 % of control
- T/C [5]: 105 % of control
- T/C [6]: 99 % of control and 101 % of control
- T/C [7]: 100 % of control

Compound: C=CC1(C)CC(C)=NC1C(=O)c1c[nH]c2ccccc12 (configuration not stated)
- T/C (dose: 12.5 mg/kg/injection, schedule: Q01DX005 (ip), vehicle: DMSO): 100 % of control
- T/C (dose: 25.0 mg/kg/injection, schedule: Q01DX005 (ip), vehicle: DMSO): 97 % of control
- T/C (dose: 50.0 mg/kg/injection, schedule: Q01DX005 (ip), vehicle: DMSO): 90 % of control
- T/C (dose: 100.0 mg/kg/injection, schedule: Q01DX005 (ip), vehicle: DMSO): 94 % of control
- T/C (dose: 200.0 mg/kg/injection, schedule: Q01DX005 (ip), vehicle: DMSO): 90 % of control

Compound: CCCCn1cnc2c(=S)nc[nH]c21
- T/C [1]: 94 % of control
- T/C [3]: 105 % of control
- T/C [4]: 102 % of control

Compound: CN1CC(NC(=O)N(CCCl)N=O)CC2c3cccc4c3c(cn4N=O)CC21 (configuration not stated)
- T/C (dose: 50.0 mg/kg/injection, schedule: Q01DX001 (ip), vehicle: Klucel (hydroxypropylcellulose) (HPC)): 166 % of control
- T/C (dose: 100.0 mg/kg/injection, schedule: Q01DX001 (ip), vehicle: Klucel (hydroxypropylcellulose) (HPC)): 166 % of control and 201 % of control
- T/C (dose: 200.0 mg/kg/injection, schedule: Q01DX001 (ip), vehicle: Klucel (hydroxypropylcellulose) (HPC)): 166 % of control

Compound: O=C(Nc1ccc(N=C(NC2CCCCC2)c2ccccc2)cc1)c1ccc(C(=O)Nc2ccc(N=C(NC3CCCCC3)c3ccccc3)cc2)cc1
- T/C [5]: 104 % of control
- T/C [6]: 103 % of control
- T/C [7]: 104 % of control and 111 % of control
- T/C (dose: 100.0 mg/kg/injection, schedule: Q01DX005 (ip), vehicle: Klucel (hydroxypropylcellulose) (HPC)): 91 % of control
- T/C (dose: 200.0 mg/kg/injection, schedule: Q01DX005 (ip), vehicle: Klucel (hydroxypropylcellulose) (HPC)): 106 % of control

Compound: CCOC(=O)CCC(=O)N(CCCNc1c2ccccc2nc2c(OC)cccc12)CCCNc1c2ccccc2nc2c(OC)cccc12
- T/C (dose: 1.25 mg/kg/injection, schedule: Q01DX009 (ip), vehicle: water): 111 % of control
- T/C (dose: 2.5 mg/kg/injection, schedule: Q01DX009 (ip), vehicle: water): 116 % of control
- T/C (dose: 20.0 mg/kg/injection, schedule: Q01DX009 (ip), vehicle: water): 97 % of control

Compound: C[N+](C)(CCS(=O)(=O)[O-])C1CCCCC1
- T/C [2]: 98 % of control
- T/C (dose: 100.0 mg/kg/injection, schedule: Q01DX009 (ip), vehicle: saline): 90 % of control
- T/C (dose: 200.0 mg/kg/injection, schedule: Q01DX009 (ip), vehicle: saline): 91 % of control

Compound: Cc1ccc(Sc2ccc3ccccc3n2)cc1
- T/C [1]: 90 % of control
- T/C [3]: 101 % of control
- T/C [4]: 104 % of control
